Where two headings read alike, the source gives them in different places.
Assays:
[1] = biological target: T1, rat α1B+α2b+β1b channels (N-type channels) (Rattus norvegicus, UniProt Q02294); test: Block of α1B N-type channels, whole cell patch recordings (Example 6); assay type: cell-based; conditions: HEK 293, 5 mM barium as charge carrier
T1 construct: expressed in transfected cells
Protocol: Antagonist activity was measured using whole cell patch recordings on human embryonic kidney cells either stably or transiently expressing rat α1B+α2b+β1b channels (N-type channels) with 5 mM barium as a charge carrier.
For transient expression, host cells, such as human embryonic kidney cells, HEK 293 (ATCC# CRL 1573) were grown in standard DMEM medium supplemented with 2 mM glutamine and 10% fetal bovine serum. HEK 293 cells were transfected by a standard calcium-phosphate-DNA coprecipitation method using the rat α1B+β1b+α2δ N-type calcium channel subunits in a vertebrate expression vector (for example, see Current Protocols in Molecular Biology).
After an incubation period of from 24 to 72 hrs the culture medium was removed and replaced with external recording solution (see below). Whole cell patch clamp experiments were performed using an Axopatch 200B amplifier (Axon Instruments, Burlingame, Calif.) linked to an IBM compatible personal computer equipped with pCLAMP software. Borosilicate glass patch pipettes (Sutter Instrument Co., Novato, Calif.) were polished (Microforge, Narishige, Japan) to a resistance of about 4 MΩ when filled with cesium methanesulfonate internal solution (composition in MM: 109 CsCH3SO4, 4 MgCl2, 9 EGTA, 9 HEPES, pH 7.2). Cells were bathed in 5 mM Ba^++ (in mM: 5 BaCl2, 1 MgCl2, 10 HEPES, 40 tetraethylammonium chloride, 10 glucose, 87.5 CsCl pH 7.2). […] Drugs were perfused directly into the vicinity of the cells using a microperfusion system.
Normalized dose-response curves were fit (Sigmaplot 4.0, SPSS Inc., Chicago, Ill.) by the Hill equation to determine IC50 values. Steady-state inactivation curves were plotted as the normalized test pulse amplitude following 5 s inactivating prepulses at +10 mV increments. Inactivation curves were fit (Sigmaplot 4.0) with the Boltzman equation, Ipeak (normalized)=1/(1+exp((V-Vh)z/25.6)), where V and Vh are the conditioning and half inactivation potentials, respectively, and z is the slope factor.
Using the procedure set forth above, various compounds of the invention were tested for their ability to block N-type calcium channels.

[2] = biological target: T2, N-type calcium channels (α1B+α2δ+β1b cDNA subunits) (Rattus norvegicus, UniProt Q02294); test: Selectivity patch clamp, N-type channels in HEK 293 (Example 7); assay type: cell-based; conditions: Tested at 0.1 Hz, 5 mM Ba2+
T2 construct: expressed in transfected cells
T2 sequence (Q02294 whole entry): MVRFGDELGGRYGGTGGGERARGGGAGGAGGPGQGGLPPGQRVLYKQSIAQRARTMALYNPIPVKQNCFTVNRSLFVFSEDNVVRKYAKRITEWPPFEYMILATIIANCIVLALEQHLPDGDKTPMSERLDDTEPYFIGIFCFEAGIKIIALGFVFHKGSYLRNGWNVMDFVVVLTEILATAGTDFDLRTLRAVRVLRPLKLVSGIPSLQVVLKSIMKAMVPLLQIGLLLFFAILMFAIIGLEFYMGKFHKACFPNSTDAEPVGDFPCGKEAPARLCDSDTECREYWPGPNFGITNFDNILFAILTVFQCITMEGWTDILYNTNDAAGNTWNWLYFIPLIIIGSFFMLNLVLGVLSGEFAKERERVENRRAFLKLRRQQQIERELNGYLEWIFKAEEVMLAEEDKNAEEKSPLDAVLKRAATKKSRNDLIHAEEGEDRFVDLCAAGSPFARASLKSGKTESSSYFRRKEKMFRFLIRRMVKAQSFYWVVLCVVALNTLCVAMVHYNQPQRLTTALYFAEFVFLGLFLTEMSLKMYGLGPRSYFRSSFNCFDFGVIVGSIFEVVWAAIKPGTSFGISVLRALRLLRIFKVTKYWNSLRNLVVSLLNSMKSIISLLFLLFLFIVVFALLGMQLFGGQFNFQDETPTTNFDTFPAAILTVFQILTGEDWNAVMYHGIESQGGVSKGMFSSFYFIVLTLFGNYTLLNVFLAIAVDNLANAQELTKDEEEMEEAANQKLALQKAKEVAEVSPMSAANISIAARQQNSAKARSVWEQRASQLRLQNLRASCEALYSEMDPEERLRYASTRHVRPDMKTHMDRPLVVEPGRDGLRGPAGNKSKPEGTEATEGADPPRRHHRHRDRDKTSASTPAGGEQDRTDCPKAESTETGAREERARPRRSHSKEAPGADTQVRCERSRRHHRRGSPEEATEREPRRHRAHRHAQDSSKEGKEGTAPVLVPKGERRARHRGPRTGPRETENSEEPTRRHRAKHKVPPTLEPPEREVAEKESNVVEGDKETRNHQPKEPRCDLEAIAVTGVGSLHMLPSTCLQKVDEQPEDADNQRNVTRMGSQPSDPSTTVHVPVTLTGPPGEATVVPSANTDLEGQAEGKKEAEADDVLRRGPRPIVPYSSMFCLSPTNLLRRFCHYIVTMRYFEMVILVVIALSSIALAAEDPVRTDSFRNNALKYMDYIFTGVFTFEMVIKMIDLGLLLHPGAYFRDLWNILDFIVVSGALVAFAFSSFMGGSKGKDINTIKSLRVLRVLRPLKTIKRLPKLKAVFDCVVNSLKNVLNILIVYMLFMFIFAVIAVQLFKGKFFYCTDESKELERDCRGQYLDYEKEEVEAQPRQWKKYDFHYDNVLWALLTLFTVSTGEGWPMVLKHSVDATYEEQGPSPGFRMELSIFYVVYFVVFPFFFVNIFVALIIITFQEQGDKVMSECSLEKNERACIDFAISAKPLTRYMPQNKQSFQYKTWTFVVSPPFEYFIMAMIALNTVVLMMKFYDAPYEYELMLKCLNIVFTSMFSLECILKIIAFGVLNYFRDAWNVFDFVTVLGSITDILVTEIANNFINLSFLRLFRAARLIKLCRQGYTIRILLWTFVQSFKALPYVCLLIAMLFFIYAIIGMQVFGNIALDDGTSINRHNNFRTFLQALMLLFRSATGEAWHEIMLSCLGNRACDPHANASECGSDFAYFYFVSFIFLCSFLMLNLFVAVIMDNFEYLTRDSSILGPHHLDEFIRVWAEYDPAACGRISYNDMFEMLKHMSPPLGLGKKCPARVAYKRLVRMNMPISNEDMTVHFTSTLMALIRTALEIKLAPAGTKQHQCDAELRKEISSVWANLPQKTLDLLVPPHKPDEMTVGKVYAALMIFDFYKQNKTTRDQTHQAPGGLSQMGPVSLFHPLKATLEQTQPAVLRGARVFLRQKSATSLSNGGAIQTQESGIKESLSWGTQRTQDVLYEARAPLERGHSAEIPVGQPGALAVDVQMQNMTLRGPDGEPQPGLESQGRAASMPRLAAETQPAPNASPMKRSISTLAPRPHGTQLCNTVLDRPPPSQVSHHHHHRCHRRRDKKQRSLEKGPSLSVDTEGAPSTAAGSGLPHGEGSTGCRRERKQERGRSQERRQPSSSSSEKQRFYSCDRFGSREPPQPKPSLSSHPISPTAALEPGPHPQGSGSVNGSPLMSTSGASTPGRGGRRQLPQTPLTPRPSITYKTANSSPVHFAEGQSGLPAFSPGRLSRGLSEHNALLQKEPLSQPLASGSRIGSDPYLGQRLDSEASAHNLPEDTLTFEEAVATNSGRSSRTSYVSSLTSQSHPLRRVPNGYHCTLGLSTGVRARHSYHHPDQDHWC

[3] = tested on: P/Q-type channels (α1A+α2δ+β1b cDNA subunits); test: Selectivity patch clamp, P/Q-type channels in HEK 293 (Example 7); assay type: cell-based; conditions: Tested at 0.1 Hz, 5 mM Ba2+
[4] = tested on: L-type channels (α1C+α2δ+β1b cDNA subunits); test: Selectivity patch clamp, L-type channels in HEK 293 (Example 7); assay type: cell-based; conditions: Tested at 0.1 Hz, 5 mM Ba2+
[5] = biological target: T3, human α1G subunits (T-type channels) (Homo sapiens, UniProt O43497); test: Block of α1G T-type channels, patch clamp in HEK cell lines (Example 8); assay type: cell-based
T3 construct: expressed in transfected cells
T3 sequence (O43497 whole entry): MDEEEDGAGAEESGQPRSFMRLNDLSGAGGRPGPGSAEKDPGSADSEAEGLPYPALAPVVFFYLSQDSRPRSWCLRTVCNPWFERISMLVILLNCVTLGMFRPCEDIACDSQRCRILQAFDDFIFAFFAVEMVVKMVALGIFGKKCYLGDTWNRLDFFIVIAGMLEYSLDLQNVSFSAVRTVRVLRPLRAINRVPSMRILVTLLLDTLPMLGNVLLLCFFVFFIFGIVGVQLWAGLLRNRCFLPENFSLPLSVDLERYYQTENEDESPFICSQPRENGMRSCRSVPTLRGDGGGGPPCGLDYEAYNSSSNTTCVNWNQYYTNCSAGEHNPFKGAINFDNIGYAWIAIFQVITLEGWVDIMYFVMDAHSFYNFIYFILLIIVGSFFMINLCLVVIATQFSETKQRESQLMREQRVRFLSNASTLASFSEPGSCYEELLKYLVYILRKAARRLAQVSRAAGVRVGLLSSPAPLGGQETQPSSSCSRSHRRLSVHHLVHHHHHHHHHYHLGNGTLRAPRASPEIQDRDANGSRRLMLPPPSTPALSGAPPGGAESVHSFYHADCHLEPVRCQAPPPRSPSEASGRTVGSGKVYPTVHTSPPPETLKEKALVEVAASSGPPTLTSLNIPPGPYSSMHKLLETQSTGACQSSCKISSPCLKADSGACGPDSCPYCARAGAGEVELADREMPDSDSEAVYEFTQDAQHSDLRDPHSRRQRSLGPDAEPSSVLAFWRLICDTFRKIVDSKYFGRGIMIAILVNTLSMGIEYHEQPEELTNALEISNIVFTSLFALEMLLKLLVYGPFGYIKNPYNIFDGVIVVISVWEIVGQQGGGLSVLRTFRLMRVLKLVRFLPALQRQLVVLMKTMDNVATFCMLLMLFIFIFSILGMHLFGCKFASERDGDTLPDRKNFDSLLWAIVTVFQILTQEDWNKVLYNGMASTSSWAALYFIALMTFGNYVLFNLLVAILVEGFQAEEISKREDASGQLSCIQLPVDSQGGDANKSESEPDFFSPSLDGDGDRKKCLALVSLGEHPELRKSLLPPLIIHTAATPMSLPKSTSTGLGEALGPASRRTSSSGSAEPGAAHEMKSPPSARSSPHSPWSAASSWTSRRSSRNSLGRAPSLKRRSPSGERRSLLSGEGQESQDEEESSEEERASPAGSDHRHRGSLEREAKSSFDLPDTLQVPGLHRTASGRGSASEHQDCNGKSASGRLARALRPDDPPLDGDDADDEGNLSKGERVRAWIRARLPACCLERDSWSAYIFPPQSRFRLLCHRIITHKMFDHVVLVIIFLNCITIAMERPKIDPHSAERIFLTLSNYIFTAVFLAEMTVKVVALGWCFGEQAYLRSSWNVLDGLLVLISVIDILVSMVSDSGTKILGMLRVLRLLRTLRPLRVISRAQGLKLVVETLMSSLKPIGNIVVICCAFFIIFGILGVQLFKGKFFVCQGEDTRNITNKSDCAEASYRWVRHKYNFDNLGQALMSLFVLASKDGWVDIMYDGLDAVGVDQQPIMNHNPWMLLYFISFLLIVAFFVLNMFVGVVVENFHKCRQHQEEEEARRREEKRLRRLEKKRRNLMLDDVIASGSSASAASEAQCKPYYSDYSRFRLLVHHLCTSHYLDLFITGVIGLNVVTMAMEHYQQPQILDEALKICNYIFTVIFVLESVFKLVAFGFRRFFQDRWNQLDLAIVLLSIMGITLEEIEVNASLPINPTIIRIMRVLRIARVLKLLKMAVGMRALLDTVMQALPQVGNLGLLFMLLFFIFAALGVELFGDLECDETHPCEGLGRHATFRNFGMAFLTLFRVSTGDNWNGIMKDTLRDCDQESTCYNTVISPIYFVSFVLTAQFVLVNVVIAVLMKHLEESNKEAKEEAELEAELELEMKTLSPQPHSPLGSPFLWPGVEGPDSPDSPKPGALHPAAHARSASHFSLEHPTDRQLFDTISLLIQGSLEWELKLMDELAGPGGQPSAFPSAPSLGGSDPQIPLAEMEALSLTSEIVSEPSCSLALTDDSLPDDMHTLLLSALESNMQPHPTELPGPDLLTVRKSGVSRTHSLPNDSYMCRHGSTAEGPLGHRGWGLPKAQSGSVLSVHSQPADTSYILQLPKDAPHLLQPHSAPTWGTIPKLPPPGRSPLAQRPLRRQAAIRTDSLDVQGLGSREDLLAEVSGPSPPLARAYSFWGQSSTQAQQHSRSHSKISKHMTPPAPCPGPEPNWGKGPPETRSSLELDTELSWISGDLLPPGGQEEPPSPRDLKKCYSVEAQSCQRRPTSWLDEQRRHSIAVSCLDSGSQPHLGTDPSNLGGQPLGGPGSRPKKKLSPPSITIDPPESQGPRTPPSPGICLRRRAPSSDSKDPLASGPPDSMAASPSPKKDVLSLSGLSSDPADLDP
Protocol: Standard patch-clamp techniques were employed to identify blockers of T-type currents. Briefly, previously described HEK cell lines stably expressing human α1G subunits were used for all the recordings (passage #: 4-20, 37° C., 5% CO2). To obtain T-type currents, plastic dishes containing semi-confluent cells were positioned on the stage of a ZEISS AXIOVERT S100 microscope after replacing the culture medium with external solution (see below). Whole-cell patches were obtained using pipettes (borosilicate glass with filament, O.D.: 1.5 mm, I.D.: 0.86 mm, 10 cm length), fabricated on a SUTTER P-97 puller with resistance values of ˜5 MΩ (see below for internal medium).
In the non-inactivating protocol, the holding potential is set at −110 mV and with a pre-pulse at −100 mV for 1 second prior to the test pulse at −40 mV for 50 ms; in the inactivation protocol, the pre-pulse is at approximately −85 mV for 1 second, which inactivates about 15% of the T-type channels, as shown below. [formula]
Test compounds were dissolved in external solution, 0.1-0.01% DMSO. After ˜10 min rest, they were applied by gravity close to the cell using a WPI microfil tubing. The “non-inactivated” pre-pulse was used to examine the resting block of a compound. The “inactivated” protocol was employed to study voltage-dependent block, but the initial data shown below were mainly obtained using the non-inactivated protocol only. IC50 values are shown for various compounds of the invention in Table 5.

rat formalin model = test: Formalin-induced pain model; assay type: in vivo; conditions: 30 mg/kg IP, 10 minutes prior to formalin, saline control=100%
Protocol: The effects of intrathecally delivered compounds of the invention on the rat formalin model were measured. The compounds were reconstituted to stock solutions of approximately 10 mg/ml in propylene glycol. Eight Holtsman male rats of 275-375 g size were randomly selected per test compound.
The following study groups were used, with test compounds, vehicle control (propylene glycol) and saline delivered intraperitoneally (IP):
Prior to initiation of drug delivery baseline behavioral and testing data were taken.
On the morning of testing, a small metal band (0.5 g) was loosely placed around the right hind paw. The rat was placed in a cylindrical Plexiglas chamber for adaptation a minimum of 30 minutes. Test compound or vehicle control was administered 10 minutes prior to formalin injection (50 μl of 5% formalin) into the dorsal surface of the right hindpaw of the rat. The animal was then placed into the chamber of the automated formalin apparatus where movement of the formalin injected paw was monitored and the number of paw flinches tallied by minute over the next 60 minutes. (See Malmberg, A. M., and Yaksh, T. L., Anesthesiology (1993) 79:270-281.)
Results are presented as Maximum Possible Effect±SEM, where saline control=100%.

[6] = 0.067 Hz, read-out: Block of α1B N-type Channels IC50, 0.067 Hz
[7] = 0.2 Hz, read-out: Block of α1B N-type Channels IC50, 0.2 Hz
[8] = 100 mV (non-inactivating protocol), read-out: Block of α1G T-type Channels IC50, 100 mV
[9] = 80 mV (inactivation protocol), read-out: Block of α1G T-type Channels IC50, 80 mV

T1 sequence (Q02294 whole entry): as the sequence (Q02294 whole entry) above

Compound | IC50 [1, 6] | IC50 [1, 7] | IC50 [2] | IC50 [3] | IC50 [4] | IC50 [5, 8] | IC50 [5, 9] | Maximum Possible Effect ± SEM, Phase I (rat formalin model) | Maximum Possible Effect ± SEM, Phase II (rat formalin model) | Maximum Possible Effect ± SEM, Phase IIA (rat formalin model)
Cl.O=C(O)C1CN(C(c2ccccc2)c2ccccc2)CCN1C(=O)CC(c1ccccc1)c1ccccc1 (centres unmarked) [Compound P8] | 230 nM | 140 nM | 360 nM | 3400 nM | 37100 nM | – | – | 78 ± 5% | 70 ± 15% | 57 ± 18%
O=C(CC(c1ccccc1)c1ccccc1)N1CCN(C(c2ccccc2)c2ccc3c(c2)OCO3)CC1 (centres unmarked) [Compound P7] | 213 nM | 137 nM | 101 nM | 6500 nM | 15800 nM | – | – | 56 ± 12% | 67 ± 6% | 61 ± 11%
O=C(CC(c1ccccc1)c1ccccc1)N1CCN(C(c2ccccc2)c2ccc(C(F)(F)F)cc2)CC1 (centres unmarked) [Compound P1] | 100 nM | 74 nM | 190 nM | 970 nM | 19600 nM | – | – | – | – | –
COc1ccc(C(c2ccc(C(F)(F)F)cc2)N2CCN(C(=O)CC(c3ccccc3)c3ccccc3)CC2)cc1 (centres unmarked) [Compound P3] | 291 nM | 111 nM | 185 nM | 7590 nM | > 10000 nM | – | – | 89 ± 8% | 79 ± 4% | 85 ± 5%
O=C(CC(c1ccccc1)c1ccccc1)N1CCN(C(c2ccccc2)c2cccc(C(F)(F)F)c2)CC1 (centres unmarked) [Compound P2] | 200 nM | 105 nM | 113 nM | 1630 nM | 6600 nM | – | – | 57 ± 14% | 67 ± 10% | 61 ± 11%
CC(C)(C)c1cc(C(c2ccccc2)N2CCN(C(=O)CC(c3ccccc3)c3ccccc3)CC2)cc(C(C)(C)C)c1O (centres unmarked) [Compound P4] | 213 nM | 114 nM | 251 nM | > 10000 nM | > 10000 nM | – | – | – | – | –
CCOC(=O)C1CN(C(c2ccccc2)c2ccccc2)CCN1C(=O)CC(c1ccccc1)c1ccccc1 (centres unmarked) [Compound P5] | 160 nM | 120 nM | 73 nM | 5000 nM | 210000 nM | – | – | – | – | –

The next lines start with results.

IC50 [1, 6] | IC50 [1, 7] | IC50 [2] | IC50 [3] | IC50 [4] | IC50 [5, 8] | IC50 [5, 9] | Compound | Maximum Possible Effect ± SEM, Phase I (rat formalin model) | Maximum Possible Effect ± SEM, Phase II (rat formalin model) | Maximum Possible Effect ± SEM, Phase IIA (rat formalin model)
324 nM | 237 nM | 217 nM | 3590 nM | 13400 nM | 35 nM | – | Cc1ccc(C(c2ccccc2)N2CCN(C(=O)CC(c3ccccc3)c3ccccc3)CC2)c(C)c1 (centres unmarked) [Compound P18] | 73 ± 17% | 84 ± 12% | 78 ± 13%
– | – | 385 nM | 26000 nM | 126000 nM | 33 nM | 4 nM | O=C(CC(c1ccccc1)c1ccccc1)N1CCN(C(c2ccccc2)c2ccc(Cl)cc2Cl)CC1 (centres unmarked) [Compound P29] | 78 ± 17% | 70 ± 10% | 61 ± 9%
237 nM | 138 nM | 197 nM | 1860 nM | 4370 nM | 1440 nM | 464 nM | O=C(CC(c1ccccc1)c1ccccc1)N1CCN([C@@H](c2ccccc2)c2ccc(Cl)cc2)CC1 [Compound P47] | 60 ± 7% | 55 ± 8% | 54 ± 9%
211 nM | 92 nM | 209 nM | 7030 nM | 106000 nM | – | 141 nM | O=C(CC(c1ccccc1)c1ccccc1)N1CCN(C(c2ccccc2)c2ccccc2Cl)CC1 (centres unmarked) [Compound P35] | 78 ± 8% | 67 ± 8% | 52 ± 11%
170 nM | 120 nM | 160 nM | 4500 nM | 133000 nM | 81 nM | – | O=C(CC(c1ccccc1)c1ccccc1)N1CCN(C(c2ccccc2)c2ccc(Cl)cc2)CC1 (centres unmarked) [Compound P6] | – | – | –
114 nM | 44 nM | 206 nM | 930 nM | 8500 nM | – | 55 nM | O=C(CC(c1ccccc1)c1ccccc1)N1CCN(C(c2ccccc2)c2cccc(Cl)c2)CC1 (centres unmarked) [Compound P36] | 62 ± 14% | 60 ± 10% | 42 ± 9%

Source: patent US20040259866A1, “Calcium channel blockers comprising two benzhydril moieties” (priority 1998, published 2004)
